Measured values taken from US20260184707A1, “PHARMACEUTICAL COMPOUNDS FOR THE TREATMENT OF COMPLEMENT MEDIATED DISORDERS” (ALEXION PHARMACEUTICALS, INC., priority 2022, published 2026).

Target: T1, Human complement C1s enzyme (Homo sapiens, UniProt P09871)
T1 construct: purified from human serum, Complement Technology, Inc; purchased Complement Technology, Inc; host or cells: human serum (plasma-derived native protein)
T1 sequence (P09871 438-688 limits assumed): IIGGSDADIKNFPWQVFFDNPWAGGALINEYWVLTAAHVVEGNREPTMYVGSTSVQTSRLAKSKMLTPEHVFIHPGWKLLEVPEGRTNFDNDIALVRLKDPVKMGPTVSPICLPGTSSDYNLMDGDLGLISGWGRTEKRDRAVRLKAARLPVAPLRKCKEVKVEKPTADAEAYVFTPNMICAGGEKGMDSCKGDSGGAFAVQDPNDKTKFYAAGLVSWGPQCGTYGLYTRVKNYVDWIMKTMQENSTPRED
T1 sequence (P09871 16-437 partner limits assumed): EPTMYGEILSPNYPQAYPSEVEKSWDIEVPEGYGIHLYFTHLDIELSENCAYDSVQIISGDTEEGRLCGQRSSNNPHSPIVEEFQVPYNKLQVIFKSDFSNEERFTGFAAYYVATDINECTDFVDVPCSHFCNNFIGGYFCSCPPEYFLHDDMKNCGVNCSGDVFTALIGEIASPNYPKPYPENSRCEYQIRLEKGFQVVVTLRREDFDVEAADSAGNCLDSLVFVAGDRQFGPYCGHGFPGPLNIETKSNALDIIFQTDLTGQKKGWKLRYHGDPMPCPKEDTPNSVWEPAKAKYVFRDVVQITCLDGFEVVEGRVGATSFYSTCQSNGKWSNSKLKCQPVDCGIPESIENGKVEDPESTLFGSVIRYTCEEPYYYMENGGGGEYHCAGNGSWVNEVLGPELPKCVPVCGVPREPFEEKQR
Assay: Human C1s enzyme assay
Assay type: biochemical
Details: human complement C1s enzyme 1.16 nM, substrate Z-L-Lys-SBzl, A405; read-out: IC50 (Stars)
Procedure, shortened: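 Serum-purified human C1s (1.16 nM final) preincubated 5 min at room temperature with compound in 50 mM Tris, 1 M NaCl, pH 7.5. Z-L-Lys-SBzl and DTNB added at 100 μM each; A405 recorded every 30 s. IC50 from nonlinear regression of reaction rates versus compound concentration.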

SMILES | IC50
O=C(Cn1c(-c2ccccc2)ncc(NS(=O)(=O)c2ccccc2)c1=O)NCc1cc2cnccc2[nH]1 [Compound 395, N-((1H-pyrrolo[3,2-c]pyridin-2-yl)methyl)-2-(6-oxo-2-phen-yl-5-(phenylsulfonamido)-pyrimidin-1(6H)-yl)acetamide] | > 1000 nM
C[C@@H](Nc1ncc(N2CCC(O)CC2)n(CC(=O)NCc2cc3cnccc3[nH]2)c1=O)c1ccc2oc3ccccc3c2c1 [Compound 470, (R)-N-((1H-pyrrolo[3,2-c]pyridin-2-yl)methyl)-2-(3-((1-(dibenzo[b,d]furan-2-yl)ethyl)-amino)-6-(4-hydroxypiperidin-1-yl)-2-oxopyrazin-1(2H)-yl)-acetamide] | < 100 nM
C[C@@H](Nc1cnc(-c2ccccc2F)n(CC(=O)NCc2cc3cnccc3[nH]2)c1=O)c1coc(-c2ccccc2)n1 [Compound 321, (R)—N-((1H-pyrrolo[3,2-c]pyridine-2-yl)methyl)-2-(2-(2-fluorophenyl)-6-oxo-5-((1-(2-phenyloxazol-4-yl)ethyl)amino)pyrimidin-1(6H)-yl)acetamide] | < 100 nM
O=C(Cn1c(-c2ccccc2)ncc(NC(=O)c2ccc3c(c2)oc2ccccc23)c1=O)NCc1cc2cnccc2[nH]1 [Compound 203, N-(1-(2-(((1H-pyrrolo[3,2-c]pyridin-2-yl)methyl)amino)-2-oxoethyl)-6-oxo-2-phenyl-1,6-dihydropyrimidin-5-yl)dibenzo [b,d]furan-3-carboxamide] | < 100 nM
CP(=O)(O)c1ccc(CCCNc2cnc(-c3ccccc3)n(CC(=O)NCc3cc4cnccc4[nH]3)c2=O)cc1 [Compound 91, (4-(3-((1-(2-(((1H-pyrrolo[3,2-c]pyridine-2-yl)methyl)amino)-2-oxoethyl)-6-oxo-2-phenyl-1,6-dihydropyrimidin-5-yl)amino)propyl)phenyl)(methyl)phosphinic acid] | < 100 nM
COCc1ncc(N[C@H](C)c2ccc3oc4ccccc4c3c2)c(=O)n1CC(=O)NCc1cc2cnccc2[nH]1 [Compound 365, (R)—N-((1H-pyrrolo[3,2-c]pyridine-2-yl)methyl)-2-(5-((1-(dibenzo[b,d]furan-2-yl)ethyl)amino)-2-(methoxymethyl)-6-oxopyrimidin-1(6H)-yl)acetamide] | 100 to 1000 nM
O=C(Cn1c(-c2ccccc2)ncc(NC(=O)Cc2ccc(Oc3ccccc3)cc2)c1=O)NCc1cc2cnccc2[nH]1 [Compound 38, N-((1H-pyrrolo[3,2-c]pyridin-2-yl)methyl)-2-(6-oxo-5-(2-(4-phenoxyphenyl)acetamido)-2-phenylpyrimidin-1(6H)-yl)-acetamide] | < 100 nM
O=C(Cn1c(-c2ccccc2)ncc(Nc2ccc(Oc3ccccc3)cc2)c1=O)NCc1cc2cnccc2[nH]1 [Compound 228, N-((1H-pyrrolo[3,2-c]pyridin-2-yl)methyl)-2-(6-oxo-5-((4-phenoxyphenyl)amino)-2-phenylpyrimidin-1(6H)-yl)-acetamide] | < 100 nM
Cc1ccccc1-c1ncc(N[C@H](C)c2ccc3oc4ccccc4c3c2)c(=O)n1CC(=O)NCc1cc2cnccc2[nH]1 [Compound 356, 2-[5-[[(1R)-1-dibenzofuran-2-ylethyl]amino]-2-(o-tolyl)-6-oxo-pyrimidin-1-yl]-N-(1H-pyrrolo[3,2-c]pyridine-2-ylmethyl)acetamide] | > 1000 nM
O=C(Cn1cncc(NCc2ccc3oc4ccccc4c3c2)c1=O)NCc1cc2cnccc2[nH]1 [Compound 246, 2-[5-(Dibenzofuran-2-ylmethylamino)-6-oxo-pyrimidin-1-yl]-N-(1H-pyrrolo[3,2-c]pyridine-2-ylmethyl)acetamide] | < 100 nM
O=C(Cn1c(-c2ccccc2)ncc(NCc2ccc(-c3ccccc3)s2)c1=O)NCc1cc2cnccc2[nH]1 [Compound 258, N-((1H-pyrrolo[3,2-c]pyridine-2-yl)methyl)-2-(6-oxo-2-phenyl-5-(((5-phenylthiophen-2-yl)methyl)amino)pyrimidin-1(6H)-yl)acetamide] | < 100 nM
C[C@@H](Nc1cnc(-c2ccccc2F)n(CC(=O)NCc2cc3cnccc3[nH]2)c1=O)c1ccc2oc3ccccc3c2c1 [Compound 237, (R)-N-((1H-pyrrolo[3,2-c]pyr-idin-2-yl)methyl)-2-(5-((1-(dibenzo[b,d]furan-2-yl)ethyl)-amino)-2-(2-fluorophenyl)-6-oxopyrimidin-1(6H)-yl)acet-amide] | < 100 nM
C[C@@H](Nc1cnc(-c2nccs2)n(CC(=O)NCc2cc3cnccc3[nH]2)c1=O)c1ccc2oc3ccccc3c2c1 [Compound 340, (R)-N-((1H-pyrrolo[3,2-c]pyridin-2-yl)methyl)-2-(5-((1-(dibenzo[b,d]furan-2-yl)ethyl)-amino)-6-oxo-2-(thiazol-2-yl)-pyrimidin-1(6H)-yl)acetamide] | 100 to 1000 nM
O=C(Cn1c(-c2ccccc2)ncc(NC(=O)c2ccc(Oc3ccccc3Cl)cc2)c1=O)NCc1cc2cnccc2[nH]1 [Compound 72, N-(1-(2-(((1H-pyrrolo[3,2-c]pyridin-2-yl)methyl)amino)-2-oxoethyl)-6-oxo-2-phenyl-1,6-dihydropyrimidin-5-yl)-4-(2-chlorophenoxy)benzamide] | < 100 nM
Cc1nc(-c2ccccc2)n(CC(=O)NCc2cc3cnccc3[nH]2)c(=O)c1NCc1ccc2oc3ccccc3c2c1 [Compound 337, N-((1H-pyrrolo[3,2-c]pyridin-2-yl)methyl)-2-(5-((dibenzo [b,d]furan-2-ylmethyl)amino)-4-methyl-6-oxo-2-phenylpyr-imidin-1(6H)-yl)acetamide] | < 100 nM
O=C(Cn1c(-c2ccccc2)ncc(NC(=O)c2ncc(-c3ccccc3)s2)c1=O)NCc1cc2cnccc2[nH]1 [Compound 170, N-(1-(2-(((1H-pyrrolo[3,2-c]pyridin-2-yl)methyl)amino)-2-oxoethyl)-6-oxo-2-phenyl-1,6-dihydropyrimidin-5-yl)-5-phen-ylthiazole-2-carboxamide] | < 100 nM
O=C(Cn1c(-c2ccccc2)ncc(NCCOc2ccccc2)c1=O)NCc1cc2cnccc2[nH]1 [Compound 6, N-((1H-pyrrolo[3,2-c]pyridin-2-yl)methyl)-2-(6-oxo-5-((2-phenoxyethyl)amino)-2-phen-ylpyrimidin-1(6H)-yl)aceamide] | < 100 nM
C[C@@H](Nc1cnc(-c2ccccc2)n(CC(=O)NCc2cc(Cl)ccc2-n2cnnn2)c1=O)c1ccc2oc3ccccc3c2c1 [Compound 425, (R)-N-(5-chloro-2-(1H-tetra-zol-1-yl)benzyl)-2-(5-((1-(dibenzo[b,d]furan-2-yl)ethyl)-amino)-6-oxo-2-phenylpyrimi-din-1(6H)-yl)acetamide] | > 1000 nM
CO[C@@H]1CO[C@H]2[C@@H]1OC[C@H]2Oc1ncc(NCCCc2ccccc2)c(=O)n1CC(=O)NCc1cc2cnccc2[nH]1 [Compound 87, N-((1H-pyrrolo[3,2-c]pyridine-2-yl)methyl)-2-(2-(((3R,3aR,6R,6aR)-6-methoxyhexahydrofuro[3,2-b]furan-3-yl)oxy)-6-oxo-5-((3-phenylpropyl)amino)pyrimidin-1(6H)-yl)acetamide] | 100 to 1000 nM
O=C(Cn1c(-c2ccccc2)ncc(NCc2ccc(-c3ccccc3F)cc2)c1=O)NCc1cc2cnccc2[nH]1 [Compound 250, N-((1H-pyrrolo[3,2-c]pyridin-2-yl)methyl)-2-(5-(((2′-fluoro-[1,1′-biphenyl]-4-yl)methyl)amino)-6-oxo-2-phenylpyrimidin-1(6H)-yl)acetamide] | < 100 nM
O=C(Cn1c(-c2ccccc2)ncc(NC(=O)c2cc3ccc2CCc2ccc(cc2)CC3)c1=O)NCc1cc2cnccc2[nH]1 [Compound 83, N-(1-(2-(((1H-pyrrolo[3,2-c]pyridine-2-yl)methyl)amino)-2-oxoethyl)-6-oxo-2-phenyl-1,6-dihydropyrimidin-5-yl)-1,4(1,4)-dibenzenacyclohexaphane-1^2-carboxamide] | > 1000 nM
O=C(Cc1cc(NCCCc2ccccc2)cnc1-c1ccccc1)NCc1cc2cnccc2[nH]1 [Compound 207, N-((1H-pyrrolo[3,2-c]pyridine-2-yl)methyl)-2-(2-phenyl-5-((3-phenylpropyl)amino)146yridine-3-yl)acetamide] | > 1000 nM
O=C(Cn1c(N2CCn3c(nnc3C(F)(F)F)C2)ncc(NCCCc2ccccc2)c1=O)NCc1cc2cnccc2[nH]1 [Compound 301, N-((1H-pyrrolo[3,2-c]pyridin-2-yl)methyl)-2-(6-oxo-5-((3-phenylpropyl)amino)-2-(3-(trifluoromethyl)-5,6-dihydro-[1,2,4]triazolo[4,3-a]pyrazin-7(8H)-yl)pyrimidin-1(6H)-yl)-acetamide] | < 100 nM
C[C@@H](Nc1cnc(-c2ccc(C3(F)COC3)cc2)n(CC(=O)NCc2cc3cnccc3[nH]2)c1=O)c1ccc2oc3ccccc3c2c1 [Compound 372, (R)—N-((1H-pyrrolo[3,2-c]pyridine-2-yl)methyl)-2-(5-((1-(dibenzo[b,d]furan-2-yl)ethyl)amino)-2-(4-(3-fluorooxetan-3-yl)phenyl)-6-oxopyrimidin-1(6H)-yl)acetamide] | < 100 nM
